Source: US20240101546A1, “HETEROARYL-ACETYLENES, PHARMACEUTICAL COMPOSITIONS THEREOF, AND THEIR THERAPEUTIC APPLICATIONS” (Eubulus Biotherapeutics Inc., priority 2020, published 2024)

Test system: lung cancer cell line NCI-H82
Experiment: Cell proliferation assay, NCI-H82 (CELL-TITER GLO)
Assay type: cell-based
Conditions: Homo sapiens, NCI-H82, 72 h, NCI-H82 cells, 72 h incubation, cell viability by CELL-TITER GLO, top concentration 1 μM; read-out: EC50, Inhibition of NCl-H82 Cell Proliferation
Procedure, shortened: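 NCI-H82 cells, 1,000 per well in RPMI1640, were treated after overnight plating with a 3-fold dilution series from 1 μM. Viability read by CellTiter-Glo luminescence after 72 h. EC50 derived from the curves.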

SMILES | EC50 [µM]
C#Cc1nc(NC(=O)N[C@@H](CO)c2ccc(-c3ccc(F)cc3C3CC3(F)F)cn2)cs1 (stereo partly drawn) [Compound A81, 1-((1R)-1-(5-(2-(2,2-Difluorocyclopropyl)-4-fluorophenyl)pyridin-2-yl)-2-hydroxyethyl)-3-(2-ethynylthiazol-4-yl)urea] | ≤ 0.2
C#Cc1nc(NC(=O)N[C@@H](CO)c2ccc(-c3cccc(N4CCCC4)c3)cc2)cs1 [Compound A42, (R)-1-(2-Ethynylthiazol-4-yl)-3-(2-hydroxy-1-(3′-(pyrrolidin-1-yl)-[1,1′-biphenyl]-4-yl)ethyl)urea] | ≤ 0.2
C#Cc1nc(NC(=O)N[C@@H](CO)c2ccc(-c3cccc4ncnc(O)c34)c(Cl)c2)cs1 [Compound A110, (R)-1-(1-(3-Chloro-4-(4-hydroxyquinazolin-5-yl)phenyl)-2-hydroxyethyl)-3-(2-ethynylthiazol-4-yl)urea] | ≤ 0.2
C#Cc1nc(NC(=O)N[C@@H](CC#N)c2ccc(-c3cccc4ncsc34)cc2)cs1 [Compound A196, (S)-1-(1-(4-(Benzo[d]thiazol-7-yl)phenyl)-2-cyanoethyl)-3-(2-ethynylthiazol-4-yl)urea] | ≤ 0.2
C#Cc1nc(NC(=O)N[C@@H](CO)c2ccc(-c3ccccc3C3(C#N)CC3)nc2)cs1 [Compound A59, (R)-1-(1-(6-(2-(1-Cyanocyclopropyl)phenyl)pyridin-3-yl)-2-hydroxyethyl)-3-(2-ethynylthiazol-4-yl)urea] | ≤ 0.2
C#Cc1nc(NC(=O)NCc2ccc(-c3cccc4ncsc34)cc2C#N)cs1 [Compound A177, 1-(4-(Benzo[d]thiazol-7-yl)-2-cyanobenzyl)-3-(2-ethynylthiazol-4-yl)urea] | 0.2 to 1
C#Cc1nc(NC(=O)N[C@@H](CO)c2ccc(-c3ccccc3C3(C#N)CC3)cc2)cs1 [Compound A54, (R)-1-(1-(2′-(1-Cyanocyclopropyl)-[1,1′-biphenyl]-4-yl)-2-hydroxyethyl)-3-(2-ethynylthiazol-4-yl)urea] | ≤ 0.2
C#Cc1nc(NC(=O)NCc2ccc(-c3ccnc(N4CCCC4)c3)cc2)cs1 [Compound A175, 1-(2-Ethynylthiazol-4-yl)-3-(4-(2-(pyrrolidin-1-yl)pyridin-4-yl)benzyl)urea] | ≤ 0.2
C#Cc1nc(NC(=O)N[C@@H](COC(N)=O)c2ccc(N3CC(F)(F)C3)cc2)cs1 [Compound A127, (R)-2-(4-(3,3-Difluoroazetidin-1-yl)phenyl)-2-(3-(2-ethynylthiazol-4-yl)ureido)-ethyl carbamate] | ≤ 0.2
C#Cc1nc(NC(=O)NCc2ccc(-c3ccccc3C#N)cc2)cs1 [Compound A29, 1-((2′-Cyano-[1,1′-biphenyl]-4-yl)methyl)-3-(2-ethynylthiazol-4-yl)urea] | ≤ 0.2
C#Cc1nc(NC(=O)N[C@@H](C(=O)N(C)C)c2ccc(-c3cccc4ncsc34)cc2)cs1 [Compound A220, (R)-2-(4-(Benzo[d]thiazol-7-yl)phenyl)-2-(3-(2-ethynylthiazol-4-yl)ureido)-N,N-dimethylacetamide] | ≤ 0.2
C#Cc1nc(NC(=O)N2CCN(c3ccc(-c4c(C#N)ccc5nc(N)sc45)cc3)CC2)cs1 [Compound B25, 4-(4-(2-Amino-6-cyanobenzo[d]thiazol-7-yl)phenyl)-N-(2-ethynylthiazol-4-yl)-piperazine-1-carboxamide] | ≤ 0.2
C#Cc1ccnc(NC(=O)N[C@@H](CO)c2ccc(-c3cccc(N4CCCC4)n3)cc2)n1 [Compound A123, (R)-1-(4-Ethynylpyrimidin-2-yl)-3-(2-hydroxy-1-(4-(6-(pyrrolidin-1-yl)pyridin-2-yl)phenyl)ethyl)urea] | ≤ 0.2
C#Cc1nc(NC(=O)N[C@@H](CO)C(=O)N2CCC(F)(F)CC2)cs1 [Compound A161, (S)-1-(1-(4,4-Difluoropiperidin-1-yl)-3-hydroxy-1-oxopropan-2-yl)-3-(2-ethynyl-thiazol-4-yl)urea] | ≤ 0.2

Second part, the molecule after the results:

EC50 [µM] | SMILES
≤ 0.2 | C#Cc1nc(NC(=O)N[C@@H](CS(N)(=O)=O)c2ccc(-c3cccnc3C3(C#N)CC3)c(Cl)c2)cs1 [Compound A73, (R)-2-(3-Chloro-4-(2-(1-cyanocyclopropyl)pyridin-3-yl)phenyl)-2-(3-(2-ethynyl-thiazol-4-yl)ureido)ethanesulfonamide]
≤ 0.2 | C#Cc1nc(NC(=O)NCc2ccc(-c3cccc(C(=O)CC)c3)cc2)cs1 [Compound A169, 1-(2-Ethynylthiazol-4-yl)-3-((3′-propionyl-[1,1′-biphenyl]-4-yl)methyl)urea]
≤ 0.2 | C#Cc1nc(NC(=O)N[C@@H](COC(=O)[C@@H](N)C(C)C)c2ccc(-c3cccc4ncsc34)cc2)cs1 [Compound A116, (R)-2-(4-(Benzo[d]thiazol-7-yl)phenyl)-2-(3-(2-ethynylthiazol-4-yl)ureido)ethyl L-valinate]
≤ 0.2 | C#Cc1nc(NC(=O)N[C@@H](CO)c2ccc(-c3cccc(N4CCCC4)n3)cc2)cs1 [Compound A88, (R)-1-(2-Ethynylthiazol-4-yl)-3-(2-hydroxy-1-(4-(6-(pyrrolidin-1-yl)pyridin-2-yl)phenyl)ethyl)urea]
≤ 0.2 | C#Cc1nnc(NC(=O)N(C)[C@@H](CO)c2ccc(-c3ccc(F)cc3C3CC3(F)F)cn2)s1 (stereo partly drawn) [Compound A86, 1-((1R)-1-(5-(2-(2,2-Difluorocyclopropyl)-4-fluorophenyl)pyridin-2-yl)-2-hydroxyethyl)-3-(5-ethynyl-1,3,4-thiadiazol-2-yl)-1-methylurea]
≤ 0.2 | C#Cc1nc(NC(=O)N(C)[C@@H](CO)c2ccc(-c3cccnc3C3(C#N)CC3)c(Cl)c2)cs1 [Compound A67, (R)-1-(1-(3-Chloro-4-(2-(1-cyanocyclopropyl)pyridin-3-yl)phenyl)-2-hydroxy-ethyl)-3-(2-ethynylthiazol-4-yl)-1-methylurea]
≤ 0.2 | C#Cc1nc(NC(=O)N[C@H](COC(N)=O)c2ccc(-c3ccccc3C3(C#N)CC3)cn2)cs1 [Compound A61, (S)-2-(5-(2-(1-Cyanocyclopropyl)phenyl)pyridin-2-yl)-2-(3-(2-ethynylthiazol-4-yl)ureido)ethyl carbamate]
